Consider two compounds from publication PMC9805530 (European journal of medicinal chemistry, 2022).

Assay [1] deals with T1, Sirt5 (Homo sapiens, UniProt Q9NXA8).
T1 sequence (Q9NXA8 37-310): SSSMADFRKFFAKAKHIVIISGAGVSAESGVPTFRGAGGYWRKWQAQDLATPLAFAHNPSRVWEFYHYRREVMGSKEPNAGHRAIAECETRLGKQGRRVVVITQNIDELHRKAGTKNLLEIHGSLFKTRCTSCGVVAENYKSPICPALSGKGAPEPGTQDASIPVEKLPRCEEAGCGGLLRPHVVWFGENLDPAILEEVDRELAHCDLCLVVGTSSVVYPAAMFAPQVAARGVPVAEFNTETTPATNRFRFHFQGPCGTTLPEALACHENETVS
Nature of the assay: Fluorogenic Sirt5 Assay Kit. The conditions noted are these: 100 μM compounds, 37 °C 30 min. The class given is biochemical.

Assay [2] deals with T2, Sirt6 (Homo sapiens, UniProt Q8N6T7). The format is biochemical. The note with it: 100 μM, 30 °C, 60 minutes.
T2 sequence (Q8N6T7 whole entry): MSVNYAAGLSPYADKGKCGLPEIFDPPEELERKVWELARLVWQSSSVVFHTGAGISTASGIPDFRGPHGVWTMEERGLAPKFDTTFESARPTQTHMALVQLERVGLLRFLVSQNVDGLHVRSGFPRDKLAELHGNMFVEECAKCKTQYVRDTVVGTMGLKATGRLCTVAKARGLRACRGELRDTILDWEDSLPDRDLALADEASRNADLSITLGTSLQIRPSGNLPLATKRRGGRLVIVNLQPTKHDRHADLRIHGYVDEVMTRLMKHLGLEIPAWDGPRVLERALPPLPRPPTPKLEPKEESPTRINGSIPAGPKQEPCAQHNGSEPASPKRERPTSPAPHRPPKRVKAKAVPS
Assay [3] has as its target T3, Sirt1 (Homo sapiens, UniProt Q96EB6).
T3 sequence (Q96EB6 1-747): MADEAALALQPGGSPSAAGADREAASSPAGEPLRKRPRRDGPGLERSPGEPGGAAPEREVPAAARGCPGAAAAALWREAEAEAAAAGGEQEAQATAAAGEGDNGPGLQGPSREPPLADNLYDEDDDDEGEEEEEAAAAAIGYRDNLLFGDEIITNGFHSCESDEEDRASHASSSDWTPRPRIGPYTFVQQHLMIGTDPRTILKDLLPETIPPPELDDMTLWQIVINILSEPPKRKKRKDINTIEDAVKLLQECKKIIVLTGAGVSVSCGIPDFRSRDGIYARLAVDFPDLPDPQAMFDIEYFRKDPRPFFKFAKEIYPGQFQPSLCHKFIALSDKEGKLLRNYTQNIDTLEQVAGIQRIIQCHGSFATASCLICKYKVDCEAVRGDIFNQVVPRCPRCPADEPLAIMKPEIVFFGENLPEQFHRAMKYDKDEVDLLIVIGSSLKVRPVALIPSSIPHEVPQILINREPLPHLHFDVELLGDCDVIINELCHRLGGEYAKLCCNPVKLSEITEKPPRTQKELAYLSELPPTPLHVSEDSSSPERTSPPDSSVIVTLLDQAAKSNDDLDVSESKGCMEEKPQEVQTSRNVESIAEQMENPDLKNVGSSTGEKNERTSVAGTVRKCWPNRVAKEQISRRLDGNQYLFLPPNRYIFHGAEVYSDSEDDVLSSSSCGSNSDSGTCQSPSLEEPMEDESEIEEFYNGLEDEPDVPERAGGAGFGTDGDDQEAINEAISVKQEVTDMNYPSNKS
Put plainly: Sirt1 deacetylation Activity Assay Kit. The conditions noted are these: time course, Fig. 3.

Assay [4] concerns the target T4, Sirt2 (Homo sapiens, UniProt Q8IXJ6).
T4 sequence (Q8IXJ6 1-389): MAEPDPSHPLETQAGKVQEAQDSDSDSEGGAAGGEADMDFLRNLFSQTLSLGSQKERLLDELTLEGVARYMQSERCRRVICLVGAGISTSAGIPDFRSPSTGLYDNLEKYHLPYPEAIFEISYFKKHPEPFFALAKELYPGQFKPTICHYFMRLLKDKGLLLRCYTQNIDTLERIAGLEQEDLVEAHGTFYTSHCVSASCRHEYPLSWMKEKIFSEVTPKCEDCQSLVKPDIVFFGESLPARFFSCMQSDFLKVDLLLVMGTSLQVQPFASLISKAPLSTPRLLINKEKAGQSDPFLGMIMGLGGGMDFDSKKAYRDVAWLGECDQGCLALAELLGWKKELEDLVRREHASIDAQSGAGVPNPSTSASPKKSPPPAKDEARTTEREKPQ
Nature of the assay: Sirt2 deacetylation Activity Assay Kit. The note with it: time course, Fig. 3.

The target in assay [5] is T5, Sirt3 (Homo sapiens, UniProt Q9NTG7).
T5 sequence (Q9NTG7 1-399): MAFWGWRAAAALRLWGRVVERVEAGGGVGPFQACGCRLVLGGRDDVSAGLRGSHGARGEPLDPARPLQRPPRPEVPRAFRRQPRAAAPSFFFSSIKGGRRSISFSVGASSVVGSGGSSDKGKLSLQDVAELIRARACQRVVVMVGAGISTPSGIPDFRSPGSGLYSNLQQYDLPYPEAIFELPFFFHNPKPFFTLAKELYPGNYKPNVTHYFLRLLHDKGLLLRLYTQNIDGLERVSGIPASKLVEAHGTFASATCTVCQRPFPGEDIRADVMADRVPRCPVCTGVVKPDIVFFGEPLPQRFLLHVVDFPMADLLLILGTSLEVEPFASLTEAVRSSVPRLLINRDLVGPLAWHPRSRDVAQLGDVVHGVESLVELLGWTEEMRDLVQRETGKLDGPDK
Put plainly: Sirt3 deacetylation Activity Assay Kit. The conditions noted are these: time course, Fig. 3.

Assay [6] deals with BV2 cells. Put plainly: LPS-induced inflammatory gene mRNA expression. The note with it: 30 μM pretreatment 30 minutes, 100 ng/mL LPS 6 hours.
Assay [7] deals with T2, Sirt6. Put plainly: Sirt6-dependent peptide deacetylation, Fluor de Lys. The conditions noted are these: Fig. 3A.
The target of assay [8] is T3, Sirt1. The conditions noted are these: cited from earlier work.
Assay [9] addresses T4, Sirt2. The conditions noted are these: cited from earlier work.
In assay [10] the target is T5, Sirt3. The conditions noted are these: cited from earlier work.

For `CN(C)CCN1CCN(c2ncccc2C2Nc3ccccc3-n3cccc32)CC1` (stereo not drawn) [Compound 38, 2-(4-(3-(4,5-Dihydropyrrolo[1,2-a]quinoxalin-4-yl)pyridin-2-yl)piperazin-1-yl)-N,N-dimethylethan-1-amine], in [1], the “effect on Sirt5 desuccinylation activity” value is reported as “no significant effects”. Moreover, in assay [2], the “acetylation of H3K9 in the nucleosome test” value is “significantly decreased”. Further, in assay [3], the “effect on Sirt1 deacetylation activity” value is given as “no significant effects”. For the same compound, the “effect on Sirt2 deacetylation activity” value in assay [4] is listed as “no significant effects”. In addition, the “effect on Sirt3 deacetylation activity” value in assay [5] is “no significant effects”. In assay [6], the ICAM-1 induction entry is reported as “slight inhibition”, the “LPS-induced expression of IL-1β” value is recorded as “strongly inhibited”, the “LPS-induced expression of IL-6” value is listed as “strongly inhibited” and the “LPS-induced expression of MCP-1” value is recorded as “strongly inhibited”. For the same compound, the “LPS-induced expression of TNFα” value in assay [6] is “strongly inhibited”. Besides, the “effect on Sirt6 activity (time course)” value in assay [7] is on record as “specifically promoted”.
Regarding `c1cncc(C2Nc3ccccc3-n3cccc32)c1` (stereo not drawn) [UBCS039, reference compound], in [8], the “effect on basal Sirt1 deacetylation activity” value is recorded as “no obvious effects”. Moreover, the “effect on basal Sirt2 deacetylation activity” value in assay [9] is listed as “no obvious effects”. In assay [10], the “effect on basal Sirt3 deacetylation activity” value was “no obvious effects”. Further, in assay [6], the “LPS-induced expression of IL-1β” value is reported as “strongly inhibited”, the “LPS-induced expression of IL-6” value is on record as “strongly inhibited”, the “LPS-induced expression of MCP-1” value is reported as “strongly inhibited” and the “LPS-induced expression of TNFα” value is recorded as “strongly inhibited”.
